Laboratory results as given in patent US4923802A, “Peptide substrates for the detection, characterization and purification of protein kinase C” (Immunex Corporation, priority 1985, dated 1990).
“Also recorded” adds a separate entry of the source. Ends that are not written are not given here.

Experiments:
protein kinase C [1] = conditions: cited from earlier work
protein kinase C [2] = assay: Direct assay for protein kinase C: phosphorylation of peptide substrate with (gamma 32P) ATP, phosphocellulose filter counting; format: biochemical, rat
Description: The peptide substrate of the present invention may be employed to assay for the presence of protein kinase C, for instance, during the above-outlined process of preparing the enzyme. The assay is based on the phosphorylation of the peptide substrate by protein kinase C. In the assay, the sample to be tested is mixed together with the peptide substrate, radiolabeled ATP, Ca^2+, phospholipid and diacylglycerol. The mixture is incubated for only a brief period to insure linearity of the reaction and then spotted onto phosphocellulose filter paper. The level of radioactivity on the filter is measured, for instance by liquid scintillation spectrometry. The level of radiation is indicative of the extent to which the substrate has been phosphorylated, which in turn is indicative of the amount of protein kinase C present in the sample being assayed. As can be appreciated, by use of the peptide substrate for the present invention, the presence of protein kinase C may be conveniently and rapidly assayed.
Protein kinase C was prepared from the brains of eight rats each having a weight of from 150 to 200 grams. The rats are sacrificed by cervical dislocation. The brains of the rats are removed and placed in eight volumes of ice-cold buffer A (40 ml), composed of the following: 20 mM 4-(2-hydroxyethyl)-1-piperazineethanesulfonic acid ("HEPES"), pH 7.5; 0.3 M sucrose; 2 mM ethyl-enediaminetetracetic acid ("EDTA"); 10 mM ethylene glycol bis(B -aminoethylether)-N, N, N', N'-tetraacetic acid ("EGTA"); 2 mM dithiothreitol ("DDT"); 1 mM phenylmethylsulfonyl; 10 ug/ml pepstatin A; 10 ug/ml soybean tripsyn inhibitor; 10 ug/ml leupeptin; and 10 uM E-64 (Peninsula Labs). E 64 is an inhibitor of CA^2+ -activated proteases. The brains are homogenized with 5 strokes of teflon-glass homogenizer and centrifuged for one hour at 100,000×g in a Ti 75 rotor. The resulting supernatant is saved and adjusted to a conductivity of 0.7-0.9 mmho. […]

Substance	rate of reaction (protein kinase C [1]; peptide concentration 450 μM) [pmole PO4 /min]	Km (protein kinase C [1]; protein kinase C, O'Brian et al., read-out: Km of the reaction) [µM]	reaction rate (rate of phosphorylation) (protein kinase C [2]; peptide concentration 1 mM) [pmole PO4 /min]	Km (in words) (protein kinase C [2]; protein kinase C, no saturation at 3 mM)	saturation of protein kinase C with substrate (protein kinase C [2]; up to 3 mM peptide)
RRKASGPPV	8	130	–	–	–
LRRASLG [Kemptide, Leu-Arg-Arg-Ala-Ser-Leu-Gly]	–	–	20	so high that it could not be determined; also recorded: too high to be determined	not saturated; also recorded: will not saturate
